Measurements published in ChEMBL document CHEMBL1152881, “A heterocyclic molecule with significant activity against dengue virus” (Bioorg Med Chem Lett, 2009).
≈ marks a conversion by molar mass, not a printed value. Calls of active or inactive are those of the source. The rule behind the calls is not given here.

Experiments:
Yellow fever virus = experiment: Antiviral activity against Yellow fever virus 17D by viral yield reduction assay; format: functional, organism-based
dengue virus type 2 [1] = experiment: Antiviral activity against Dengue virus type 2 New Guinea C infected in african green monkey Vero cells assessed as inhibition of virus-induced cytopathic effect; format: functional, organism-based
[2] = (§1) Therapeutic index, ratio of CC50 for african green monkey Vero cells to EC50 for Dengue virus type 2; format: cell-based; settings: read-out: TI
[3] = as §1; format: cell-based; settings: read-out: TI; remark: listed apart in the source
[4] = as §1; format: cell-based; settings: read-out: TI; remark: listed apart in the source
[5] = Cytotoxicity against african green monkey Vero cells; format: cell-based; settings: chlorocebus sabaeus
dengue virus type 2 [6] = experiment: Antiviral activity against Dengue virus type 2 New Guinea C infected in african green monkey Vero cells by neutral red uptake assay; format: functional, organism-based
dengue virus type 2 [7] = experiment: Antiviral activity against Dengue virus type 2 New Guinea C infected in african green monkey Vero cells assessed as inhibition of virus-induced cytopathic effect by viral yield reduction assay; format: functional

For `O=C(O)c1cnc2c(c1O)c(=O)n(Cc1ccccc1)c(=O)n2Cc1ccccc1`, the Activity (Yellow fever virus) was “Active”, the EC50 (dengue virus type 2 [1]) was 5.7 µg/mL (≈ 14.1 µM) and the selectivity ratio [2] was over 26. It also gave a selectivity ratio [3] of over 18, a selectivity ratio [4] of over 16 and a CC50 [5] of over 100 µg/mL. It also gave an EC50 (dengue virus type 2 [6]) of 6.3 µg/mL (≈ 15.6 µM), a CC50 (dengue virus type 2 [7]) of over 100 µg/mL and an EC90 (dengue virus type 2 [7]) of 3.8 µg/mL (≈ 9.42 µM).
